How the values were obtained:
[1] = Inhibition of N-type calcium channel alpha1B/alpha2delta-1/beta1b assessed as inhibition of KCl-induced calcium mobilization by FDSS
[2] = (§1) Metabolic stability in rat liver microsomes assessed as compound remaining after 10 mins; assay type: ADME, Microsome; settings: liver microsomes, read-out: Stability
[3] = (§2) Metabolic stability in human liver microsomes assessed as compound remaining after 10 mins; assay type: ADME, Microsome; settings: liver microsomes, read-out: Stability
[4] = system: Liver microsomes; assay: as §1; assay type: ADME, Microsome; settings: microsomes, 10 min
[5] = system: Liver microsomes; assay: as §2; assay type: ADME, Microsome; settings: microsomes, 10 min
[6] = Inhibition of N-type calcium channel alpha1B/alpha2delta-1/beta1b by patch clamp analysis
[7] = Half life in Sprague-Dawley rat at 2 mg/kg, iv; assay type: ADME, organism-based; parameters: dose 2 mg/kg, route intravenous; settings: in vivo
[8] = Inhibition of L-type calcium channel at 5 uM
[9] = system: Plasma; assay: Plasma concentration in Sprague-Dawley rat at 30 mg/kg, ip; assay type: ADME, organism-based; parameters: dose 30 mg/kg, route intraperitoneal; settings: in vivo
[10] = species: Rattus norvegicus; assay: Ex vivo inhibition of rat N-type calcium channel assessed as inhibition of KCl-stimulated CGRP release at 1 uM by ELISA in presence of conotoxin GVIA; assay type: functional
[11] = Clearance in Sprague-Dawley rat at 2 mg/kg, iv; assay type: ADME, organism-based; parameters: dose 2 mg/kg, route intravenous; settings: in vivo
[12] = system: Rattus norvegicus; assay: Antiinflammatory activity in ip dosed Sprague-Dawley rat assessed as reversal of carrageenan-induced thermal hypersensitivity administered 1 hr before carrageenan challenge; assay type: functional, organism-based
[13] = Cmax in Sprague-Dawley rat at 10 mg/kg, po; assay type: ADME, organism-based; parameters: dose 10 mg/kg, route oral; settings: in vivo
[14] = system: Rattus norvegicus; assay: Antiallodynic activity in Sprague-Dawley rat chronic constriction injury-induced neuropathic pain model assessed as attenuation of CCl-induced cold allodynia at 30 mg/kg, ip measured at 1 to 4 hrs; assay type: functional; settings: route intraperitoneal
[15] = Oral bioavailability in Sprague-Dawley rat at 10 mg/kg; assay type: ADME, organism-based; settings: in vivo
[16] = Tmax in Sprague-Dawley rat at 10 mg/kg, po; assay type: ADME, organism-based; parameters: dose 10 mg/kg, route oral; settings: in vivo
[17] = system: Rattus norvegicus; assay: Antiinflammatory activity in Sprague-Dawley rat assessed as reversal of carrageenan-induced thermal hypersensitivity at 30 mg/kg, ip administered 1 hr before carrageenan challenge relative to control; assay type: functional; settings: route intraperitoneal

**Q.** For `COc1ccccc1-n1nc(C2CCN(S(C)(=O)=O)CC2)cc1-c1ccc(Cl)cc1Cl`, which IC50 [1] is on record?
**A.** 15 nM

**Q.** With `COc1ccccc1-n1nc(C2CCN(S(C)(=O)=O)CC2)cc1C1=CCC(C)(C)CC1` as the compound, how does the IC50 [1] read?
**A.** 49 nM

**Q.** Which IC50 [1] does the source give for `COc1ccccc1-n1nc(C2CCN(S(C)(=O)=O)CC2)cc1-c1ccc(C#N)cc1` here?
**A.** 170 nM

**Q.** Which IC50 [1] does the source give for `CNc1ccc(-c2cc(C3CCN(S(C)(=O)=O)CC3)nn2-c2ccccc2OC)cc1` here?
**A.** 200 nM

**Q.** With `COc1ccccc1-n1nc(C2CCN(S(C)(=O)=O)CC2)cc1-c1ccc(N(C)C)cc1` as the compound, how does the IC50 [1] read?
**A.** 61 nM

**Q.** What does the source list for `COc1ccccc1-n1nc(C2CCN(S(=O)(=O)C(F)(F)F)CC2)cc1-c1ccc(Cl)cc1`?
**A.** remaining at 10 min [2]: 100%; remaining at 10 min [3]: 98%; IC50 [1]: 16 nM

**Q.** With `COc1ccccc1-n1nc(C2CCN(S(C)(=O)=O)CC2)cc1-c1ccc(C(C)(C)C)cc1` as the compound, how does the IC50 [1] read?
**A.** 29 nM

**Q.** With `COc1ccccc1-n1nc(C2CCN(S(C)(=O)=O)CC2)cc1-c1ccc(Cl)s1` as the compound, how does the IC50 [1] read?
**A.** 93 nM

**Q.** Which Stability [4] does the source give for `COc1ccccc1-n1nc(C2CCN(S(=O)(=O)N(C)C)CC2)cc1-c1ccc(Cl)cc1` here?
**A.** Unstable

**Q.** What about the Stability [5] of the same compound?
**A.** Unstable

**Q.** And the IC50 [1]?
**A.** 11 nM

**Q.** For `COc1ccccc1-n1nc(C2CCN(S(=O)(=O)C(C)C)CC2)cc1-c1ccc(Cl)cc1`, which remaining at 10 min [2] is on record?
**A.** 19%

**Q.** What about the IC50 [6] of the same compound?
**A.** 80 nM

**Q.** What about the remaining at 10 min [3] of the same compound?
**A.** 100%

**Q.** What about the IC50 [1] of the same compound?
**A.** 18 nM

**Q.** For `COc1c(Cl)cccc1-n1nc(C2CCN(S(C)(=O)=O)CC2)cc1-c1ccc(Cl)cc1`, which IC50 [1] is on record?
**A.** 170 nM

**Q.** Which IC50 [1] does the source give for `COc1ccccc1-n1nc(C2CCN(S(C)(=O)=O)CC2)cc1-c1ccc(OC(C)C)cc1` here?
**A.** 250 nM

**Q.** With `COc1ccccc1-n1nc(C2CCN(S(C)(=O)=O)CC2)cc1-c1ccc(F)cc1` as the compound, how does the IC50 [1] read?
**A.** 98 nM

**Q.** For `COc1ccccc1-n1nc(CCCO)cc1-c1ccc(Cl)cc1`, which remaining at 10 min [2] is on record?
**A.** 14%

**Q.** And the IC50 [1]?
**A.** 97 nM

**Q.** Which IC50 [1] does the source give for `COc1ccccc1-n1nc(C2CCN(S(C)(=O)=O)CC2)cc1-c1ccc(Cl)c(C#N)c1` here?
**A.** 95 nM

**Q.** Which IC50 [1] does the source give for `CN(C)c1ccccc1-n1nc(C2CCN(S(C)(=O)=O)CC2)cc1-c1ccc(Cl)cc1` here?
**A.** 13 nM

**Q.** With `COc1ccccc1-n1nc(C2CCN(S(C)(=O)=O)CC2)cc1-c1ccc2c(ccn2C)c1` as the compound, how does the IC50 [1] read?
**A.** 68 nM

**Q.** With `COc1ccccc1-n1nc(C2CCN(C(C)=O)CC2)cc1-c1ccc(Cl)cc1` as the compound, how does the remaining at 10 min [2] read?
**A.** 7%

**Q.** And the remaining at 10 min [3]?
**A.** 59%

**Q.** And the IC50 [1]?
**A.** 17 nM

**Q.** Which results are given for `CCS(=O)(=O)N1CCC(c2cc(-c3ccc(Cl)cc3)n(-c3ccccc3OC)n2)CC1`?
**A.** remaining at 10 min [2]: 22%; Stability [5]: Unstable; IC50 [1]: 35 nM

**Q.** For `CS(=O)(=O)N1CCC(c2cc(-c3ccc(Cl)cc3)n(-c3ccccc3N)n2)CC1`, which IC50 [1] is on record?
**A.** > 300 nM

**Q.** For `COc1ccccc1-n1nc(C2CCN(S(C)(=O)=O)CC2)cc1C1CCC(C)(C)CC1`, which IC50 [1] is on record?
**A.** 140 nM

**Q.** For `COc1ccccc1-n1nc(C2CCN(S(C)(=O)=O)CC2)cc1-c1cc2ccccc2o1`, which IC50 [1] is on record?
**A.** 400 nM

**Q.** With `OCCCc1cc(-c2ccc(Cl)cc2)n(-c2ccccc2)n1` as the compound, how does the IC50 [1] read?
**A.** 1200 nM

**Q.** Which results are given for `COc1ccccc1-n1nc(C2CCN(S(=O)(=O)CC(F)(F)F)CC2)cc1-c1ccc(Cl)cc1`?
**A.** remaining at 10 min [2]: 33%; remaining at 10 min [3]: 100%; IC50 [1]: 26 nM

**Q.** Which IC50 [1] does the source give for `COc1ccccc1-n1nc(C2CCN(S(C)(=O)=O)CC2)cc1-c1ccc(Cl)c(C(F)(F)F)c1` here?
**A.** 100 nM

**Q.** What does the source list for `CC(C)Oc1ccccc1-n1nc(C2CCN(S(C)(=O)=O)CC2)cc1-c1ccc(Cl)cc1`?
**A.** remaining at 10 min [2]: 5%; remaining at 10 min [3]: 18%; IC50 [1]: 5 nM

**Q.** For `COc1ccccc1-n1nc(C2CCN(S(C)(=O)=O)CC2)cc1-c1ccc(Cl)cc1`, which half-life [7] is on record?
**A.** 1.5 h

**Q.** And the remaining at 10 min [2]?
**A.** 45%

**Q.** And the inhibition [8]?
**A.** 52%

**Q.** And the concentration [9]?
**A.** 8.32 µM

**Q.** What about the “inhibition (INH)” value [10] of the same compound?
**A.** 91%

**Q.** And the IC50 [6]?
**A.** 200 nM

**Q.** What about the clearance [11] of the same compound?
**A.** 26 mL/min/kg

**Q.** And the Activity [12]?
**A.** Dose-dependent effect

**Q.** What about the Cmax [13] of the same compound?
**A.** 1.5 µM

**Q.** What about the remaining at 10 min [3] of the same compound?
**A.** 86%

**Q.** And the inhibition in vivo at 30 mg/kg [14]?
**A.** 41%

**Q.** And the bioavailability [15]?
**A.** 42.5%

**Q.** And the Tmax [16]?
**A.** 0.9 h

**Q.** What about the Activity [17] of the same compound?
**A.** 82%

**Q.** What about the IC50 [1] of the same compound?
**A.** 27 nM

From ChEMBL document CHEMBL2029231, “A novel series of pyrazolylpiperidine N-type calcium channel blockers” (Bioorg Med Chem Lett, 2012)
